Source: PubChem BioAssay (NCI)
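Dose response: 5 concentrations. Exposure: 48 h. Format: 96-well plates. Endpoint: linear interpolation; highest concentration if not reached. Here, GI50 denotes the concentration required for 50% inhibition of growth. Definition used: TGI = concentration required for complete inhibition of growth.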

What was measured:
Assay in all cases: DTP human tumour cell line panel, 48 h
[1] = test system: 786-0 renal
[2] = test system: A498 renal
[3] = test system: A549 NSCLC
[4] = test system: ACHN renal
[5] = test system: BT-549 breast
[6] = test system: CCRF-CEM leukemia
[7] = test system: COLO 205 colon
[8] = test system: DLD-1 colon
[9] = test system: DMS 114 small cell lung
[10] = test system: DU-145 prostate
[11] = test system: HCT-15 colon
[12] = test system: HL-60(TB) leukemia
[13] = test system: HOP-18 NSCLC
[14] = test system: HOP-62 NSCLC
[15] = test system: HS 578T breast
[16] = test system: HT29 colon
[17] = test system: K-562 leukemia
[18] = test system: KM12 colon
[19] = test system: LOX IMVI melanoma
[20] = test system: LXFL 529 NSCLC
[21] = test system: MALME-3M melanoma
[22] = test system: MCF7 breast
[23] = test system: MDA-MB-231 breast
[24] = test system: MDA-MB-435
[25] = test system: MOLT-4 leukemia
[26] = test system: NCI-H226 lung
[27] = test system: NCI-H460 lung
[28] = test system: NCI/ADR-RES ovarian
[29] = test system: OVCAR-4 ovarian
[30] = test system: OVCAR-8 ovarian
[31] = test system: PC-3 prostate
[32] = test system: RPMI-8226 leukemia
[33] = test system: RXF 393 renal
[34] = test system: SF-295 CNS
[35] = test system: SF-539 CNS
[36] = test system: SK-MEL-2 melanoma
[37] = test system: SK-MEL-5 melanoma
[38] = test system: SN12C renal
[39] = test system: SNB-75 CNS
[40] = test system: SNB-78 CNS
[41] = test system: SR leukemia
[42] = test system: T-47D breast
[43] = test system: TK-10 renal
[44] = test system: U251 CNS
[45] = test system: UACC-257 melanoma
[46] = test system: UACC-62 melanoma
[47] = test system: UO-31 renal
[48] = test system: XF 498 CNS

C[CH2][Sn]([CH2]C)([O]C(=O)c1cccc(OC)c1)[O][Sn]([CH2]C)([CH2]C)[O]C(=O)c1cccc(OC)c1
GI50 [1]: 17 µM
TGI [1]: 30.7 µM
GI50 [2]: 16 µM
TGI [2]: 30.2 µM
GI50 [3]: > 100 µM
TGI [3]: > 100 µM
GI50 [4]: 17.1 µM
TGI [4]: 31.4 µM
GI50 [5]: 15.4 µM
TGI [5]: 29.4 µM
GI50 [6]: 3.17 µM
TGI [6]: 17.7 µM
GI50 [7]: 22 µM
TGI [7]: > 54.8 µM
GI50 [8]: 14.3 µM
TGI [8]: 29.6 µM
GI50 [9]: 15.9 µM
TGI [9]: 30.1 µM
GI50 [10]: > 100 µM
TGI [10]: > 100 µM
GI50 [11]: 17.4 µM
TGI [11]: 35.4 µM
GI50 [12]: 19.2 µM
TGI [12]: 70.9 µM
GI50 [13]: 15.9 µM
TGI [13]: 29.3 µM
GI50 [14]: > 58.2 µM
TGI [14]: > 100 µM
GI50 [15]: 29.3 µM
TGI [15]: > 100 µM
GI50 [16]: 33.2 µM
TGI [16]: > 100 µM
GI50 [17]: 9.4 µM
TGI [17]: 60.3 µM
GI50 [18]: > 100 µM
TGI [18]: > 100 µM
GI50 [19]: 11.4 µM
TGI [19]: 25.9 µM
GI50 [20]: 10.1 µM
TGI [20]: 21.7 µM
GI50 [21]: 15 µM
TGI [21]: 30.4 µM
GI50 [22]: 10.1 µM
TGI [22]: 26.6 µM
GI50 [23]: 16 µM
TGI [23]: 33.5 µM
GI50 [24]: 18.8 µM
TGI [24]: 42.4 µM
GI50 [25]: 27.9 µM
TGI [25]: > 72.4 µM
GI50 [26]: 18.4 µM
TGI [26]: 33.2 µM
GI50 [27]: > 71 µM
TGI [27]: > 100 µM
GI50 [28]: > 100 µM
TGI [28]: > 100 µM
GI50 [29]: 17.9 µM
TGI [29]: 35.3 µM
GI50 [30]: > 42.1 µM
TGI [30]: > 57 µM
GI50 [31]: > 100 µM
TGI [31]: > 100 µM
GI50 [32]: 13 µM
TGI [32]: 54.3 µM
GI50 [33]: 15 µM
TGI [33]: 28.4 µM
GI50 [34]: 20.8 µM
TGI [34]: 40.3 µM
GI50 [35]: 16.4 µM
TGI [35]: 30.4 µM
GI50 [36]: 16.6 µM
TGI [36]: 37.4 µM
GI50 [37]: 42.9 µM
TGI [37]: > 64 µM
GI50 [38]: 19.9 µM
TGI [38]: 44.9 µM
GI50 [39]: 14.6 µM
TGI [39]: 42.2 µM
GI50 [40]: 16.2 µM
TGI [40]: 32.9 µM
GI50 [41]: 26.3 µM
TGI [41]: > 100 µM
GI50 [42]: 3.05 µM
TGI [42]: 13.5 µM
GI50 [43]: 16.8 µM
TGI [43]: 30.7 µM
GI50 [44]: 18.6 µM
TGI [44]: 35.1 µM
GI50 [45]: 17.2 µM
TGI [45]: 34.6 µM
GI50 [46]: 16.6 µM
TGI [46]: 31.4 µM
GI50 [47]: 34 µM
TGI [47]: > 53.5 µM
GI50 [48]: 16.1 µM
TGI [48]: 29.6 µM
